Earlier results as cited in publication PMC12039075 (Structure (London, England : 1993), 2022).

Test system: human nicotinic receptor (HNR) α4/β2 subunit

For `CN1CCC[C@H]1c1cccnc1` [nicotine], the published affinity range is listed as 0.6 to 10 nM.
